Test results: patent publication US9605004B2, “Chemical compounds” (SYNGENTA LIMITED, priority 2013, dated 2017)

Experiments:
[1] = system: a variety of test species; assay: Post-emergence herbicidal activity (Example 8b, Table 3); type: in vivo; conditions: application post-emergence, rate 1000 g/ha, evaluated after 13 days, scale 0-5; for Herbicidal damage score, ABUTH: Abutilon theophrasti; for Herbicidal damage score, ALOMY: Alopecurus myosuroides; for Herbicidal damage score, AMARE: Amaranthus retroflexus; for Herbicidal damage score, ECHCG: Echinochloa crus-galli; for Herbicidal damage score, SETFA: Setaria faberi; for Herbicidal damage score, ZEAMX: Zea mays
Description: (§1) Seeds of a variety of test species were sown in standard soil in pots. After 8 days cultivation (post-emergence) under controlled conditions in a glasshouse (at 24/16° C., day/night; 14 hours light; 65% humidity), the plants were sprayed with an aqueous spray solution derived from the formulation of the technical active ingredient in acetone/water (50:50) solution containing 0.5% Tween 20 (polyoxyethelyene sorbitan monolaurate, CAS RN 9005-64-5). The test plants were then grown in a glasshouse under controlled conditions (at 24/16° C., day/night; 14 hours light; 65% humidity) and watered twice daily. After 13 days, the test was evaluated (5=total damage to plant; 0=no damage to plant).

[2] = system: a variety of test species; assay: Pre-emergence herbicidal activity (Example 8a, Table 2); type: in vivo; parameters: key: 0 = no damage to plant, 5 = total damage to plant; conditions: application pre-emergence, rate 1000 g/ha, evaluated after 13 days
Description: as §1, with “After” for “After 8 days”, “for one day (pre-emergence)” for “(post-emergence)”

SMILES	Herbicidal damage score, ABUTH [1]	Herbicidal damage score, ALOMY [1]	Herbicidal damage score, AMARE [1]	Herbicidal damage score, ECHCG [1]	Herbicidal damage score, SETFA [1]	Herbicidal damage score, ZEAMX [1]	Pre-emergence herbicidal activity, damage score ABUTH [2]	Pre-emergence herbicidal activity, damage score ALOMY [2]	Pre-emergence herbicidal activity, damage score AMARE [2]	Pre-emergence herbicidal activity, damage score ECHCG [2]	Pre-emergence herbicidal activity, damage score SETFA [2]	Pre-emergence herbicidal activity, damage score ZEAMX [2]
CC1=C(Cl)C(=O)N(c2cc3n(n2)CCCC3(C)C)C1O (stereo not drawn) [Compound G4]	5	5	5	5	5	5	5	4	5	5	5	3
CC1=C(Cl)C(=O)N(c2cc(S(C)(=O)=O)n(C)n2)C1O (stereo not drawn) [Compound B38]	5	5	5	5	5	5	5	4	5	5	5	4
CC1=C(Cl)C(=O)N(c2cc3n(n2)CCC3(C)C)C1O (stereo not drawn) [Compound G8]	5	5	5	5	5	4	5	4	5	5	5	4
CC1=C(Cl)C(=O)N(c2nn(C)c3c2C2CCC3C2)C1O (stereo not drawn) [Compound E4]	5	4	5	5	5	4	5	3	5	4	5	2
CC1=C(Br)C(=O)N(c2cc3n(n2)CC[S+]([O-])C3(C)C)C1O (mixture of isomers) [Compound M5]	4	2	2	2	1	0	2	1	2	2	1	1
CCC1=C(Cl)C(=O)N(c2ccn(C)n2)C1O (stereo not drawn) [Compound B28]	0	0	0	0	0	0	0	0	0	0	0	0
COC1=C(OC)C(O)N(c2cc(C(C)(C)C)n(C)n2)C1=O (stereo not drawn) [Compound T1]	5	5	5	5	5	3	5	4	5	5	4	2
CC1=C(Cl)C(=O)N(c2cc(C(C)C(F)(F)F)n(C)n2)C1O (stereo not drawn) [Compound B39]	5	5	5	5	5	5	5	4	5	5	5	4
CC1=C(Cl)C(=O)N(c2cc(C3CC3)[nH]n2)C1O (stereo not drawn) [Compound A4]	5	5	5	5	5	5	5	4	5	5	5	2
CC1=C(Cl)C(=O)N(c2cc(/C=C/C(C)(C)C)n(C)n2)C1O (stereo not drawn) [Compound B17]	5	3	5	5	5	1	2	2	4	4	3	2
C=CCC(C)(C)c1cc(N2C(=O)C(Cl)=C(C)C2O)nn1C (stereo not drawn) [Compound B6, 4-chloro-1-[5-(1,1-dimethylbut-3-enyl)-1-methyl-pyrazol-3-yl]-2-hydroxy-3-methyl-2H-pyrrol-5-one]	5	5	5	5	5	4	5	4	5	4	5	4
